Experiments:
[1] = according to Schalcter (2017), cited from earlier work
CoV-OC43 = assay: in vitro inhibition of infection of cells with test virus CoV-OC43; format: cell-based; settings: for infection of cells by CoV-OC43 at different concentrations: different dilutions of the sialic acid, two replicates, FIGS. 1 and 2
Description: FIG. 1 provides data from one replicate showing infection of cells by CoV-OC43 at different concentrations of either Neu5Ac or Neu5Gc.
FIG. 2 provides data from another replicate showing infection of cells by CoV-OC43 at different concentrations of either Neu5Ac or Neu5Gc.
FIG. 3 provides data from an experiment where inhibition of infection by Neu5Ac is compared to a control sugar, galactose.
The effectiveness of sialic acid (Neu5Ac or Neu5Gc) in preventing corona virus infection was evaluated in vitro in a model system. Different dilutions of the sialic acids were tested for their ability to inhibit infection of cells with the test virus CoV-OC43. FIGS. 1 and 2 provide data from two replicates showing infection of cells by CoV-OC43 at different concentrations of either Neu5Ac or Neu5Gc (Neu5Ac left hand bars, Neu5Gc right hand bars).

SMILES | excretion via urine [1] | absorption after ingestion ([1]; after ingestion) | inhibition of infection compared to a control sugar, galactose (CoV-OC43; CoV-OC43, FIG. 3) | infection of cells by CoV-OC43 at different concentrations (CoV-OC43)
CC(=O)N[C@H]1[C@H]([C@H](O)[C@H](O)CO)OC(O)(C(=O)O)C[C@@H]1O (some centres unmarked) [Neu5Ac, N-acetyl neuraminic acid] | quickly excreted via urine | rapidly absorbed | prevents infection as compared to the control | inhibited in a dose-dependent manner
O=C(CO)N[C@H]1[C@H]([C@H](O)[C@H](O)CO)OC(O)(C(=O)O)C[C@@H]1O (some centres unmarked) [Neu5Gc, N-glycolylneuraminic acid] |  |  |  | inhibited in a dose-dependent manner

— patent publication US12390481B2, “Sialic acid compositions for the use of inhibiting and treating coronavirus infection” (LifeScience AS, priority 2020, dated 2025)
